According to patent US20250120967A1, “TYROSINE KINASES INHIBITORS AND USES THEREOF” (GREAT NOVEL THERAPEUTICS BIOTECH & MEDICALS CORPORATION, priority 2023, published 2025):

How the values were obtained:
Experiment in all cases: Tyrosine kinase inhibition assay
Type in all cases: biochemical
Settings in all cases: single concentration 1.0 μM, read-out: percent inhibition
IGF1R = IGF1R (Homo sapiens, UniProt P08069)
Protocol: (§1) Tyrosine kinase inhibition assays were performed at ThermoFisher Life Technologies (Madison, WI, USA) using standard protocols (SelectScreen Biochemical Profiling Service, Thermo Fisher Scientific). ATP concentrations used were at the apparent Km. Test compounds were screened in 1% dimethylsulffoxide (DMSO) (final concentration) in the well. For 10-point titrations, 3-fold serial dilutions were conducted from the starting concentration of […]. All Peptide/Kinase Mixtures were diluted to a 2× working concentration in the appropriate Kinase Buffer. All ATP Solutions were diluted to a 4× working concentration in Kinase Buffer (50 mM HEPES pH 7.5, 0.01% BRIJ-35, 10 mM MgCl2, 1 mM EGTA). The apparent ATP Km was previously determined using a Z′-LYTE assay. The Development Reagent was diluted in Development Buffer.
(§2) The inhibition activities of compounds were determined in biochemical assays using single concentration (1.0 μM) measurements. The results were provided as percent inhibition values. A compound displaying a percent inhibition value of greater 80% was defined as a hit. 99 different tyrosine kinases were used.

ABL2 (Arg) = ABL2 (Arg) (Homo sapiens, UniProt P42684)
Protocol: as §1, §2

JAK2 = JAK2 (Homo sapiens, UniProt O60674)
Protocol: as §1, §2

NTRK3 (TRKC) = NTRK3 (TRKC) (Homo sapiens, UniProt Q16288)
Protocol: as §1, §2

PIK3CG (p110 gamma) = PIK3CG (p110 gamma) (Homo sapiens, UniProt P48736)
Protocol: as §1, §2

MATK (HYL) = target: T1, MATK (HYL) (Homo sapiens, UniProt P42679)
T1 sequence (P42679 1-507): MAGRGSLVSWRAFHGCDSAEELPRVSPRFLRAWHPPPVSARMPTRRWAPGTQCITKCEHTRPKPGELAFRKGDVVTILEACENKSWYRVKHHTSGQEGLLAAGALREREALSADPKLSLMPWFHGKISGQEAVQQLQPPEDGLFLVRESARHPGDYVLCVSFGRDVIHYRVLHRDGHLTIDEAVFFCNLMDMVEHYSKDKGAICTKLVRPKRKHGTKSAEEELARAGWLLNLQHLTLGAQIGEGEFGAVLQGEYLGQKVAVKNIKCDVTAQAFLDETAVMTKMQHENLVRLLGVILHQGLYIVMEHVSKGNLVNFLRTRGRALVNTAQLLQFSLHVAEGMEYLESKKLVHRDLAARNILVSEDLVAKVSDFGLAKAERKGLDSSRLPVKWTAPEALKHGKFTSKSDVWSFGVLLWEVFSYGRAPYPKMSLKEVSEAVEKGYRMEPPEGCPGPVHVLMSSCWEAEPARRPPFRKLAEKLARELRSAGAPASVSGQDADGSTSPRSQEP
Protocol: as §1, §2

YES1 = YES1 (Homo sapiens, UniProt P07947)
Protocol: as §1, §2

EPHB4 = target: T2, EPHB4 (Homo sapiens, UniProt P54760)
T2 sequence (P54760 16-987): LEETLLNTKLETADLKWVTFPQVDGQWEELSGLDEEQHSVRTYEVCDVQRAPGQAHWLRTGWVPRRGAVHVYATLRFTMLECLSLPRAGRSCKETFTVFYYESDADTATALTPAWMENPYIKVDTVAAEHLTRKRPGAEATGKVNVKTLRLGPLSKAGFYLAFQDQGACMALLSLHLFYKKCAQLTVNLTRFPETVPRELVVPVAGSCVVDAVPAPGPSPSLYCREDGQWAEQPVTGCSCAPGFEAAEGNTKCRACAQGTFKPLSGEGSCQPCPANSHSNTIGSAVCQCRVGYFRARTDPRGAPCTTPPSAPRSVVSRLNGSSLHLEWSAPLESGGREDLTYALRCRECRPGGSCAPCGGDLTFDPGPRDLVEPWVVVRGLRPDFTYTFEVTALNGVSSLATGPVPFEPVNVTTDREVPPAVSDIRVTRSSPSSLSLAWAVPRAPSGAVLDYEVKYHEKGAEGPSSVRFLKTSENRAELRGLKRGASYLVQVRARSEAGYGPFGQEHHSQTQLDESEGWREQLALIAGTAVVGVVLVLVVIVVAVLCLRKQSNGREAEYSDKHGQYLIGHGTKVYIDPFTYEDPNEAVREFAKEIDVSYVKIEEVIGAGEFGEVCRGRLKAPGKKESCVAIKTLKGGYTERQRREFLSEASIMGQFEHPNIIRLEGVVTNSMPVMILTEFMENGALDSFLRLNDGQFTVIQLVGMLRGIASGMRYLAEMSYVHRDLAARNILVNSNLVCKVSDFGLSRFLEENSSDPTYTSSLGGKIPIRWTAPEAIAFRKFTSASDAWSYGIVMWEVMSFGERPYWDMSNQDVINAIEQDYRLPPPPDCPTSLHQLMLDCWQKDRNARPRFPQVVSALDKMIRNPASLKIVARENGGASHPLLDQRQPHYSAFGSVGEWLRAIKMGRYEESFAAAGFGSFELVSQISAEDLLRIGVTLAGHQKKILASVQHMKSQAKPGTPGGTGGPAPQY
Protocol: as §1, §2

LTK (TYK1) = LTK (TYK1) (Homo sapiens, UniProt P29376)
Protocol: as §1, §2

PIK3C3 (hVPS34) = PIK3C3 (hVPS34) (Homo sapiens, UniProt Q8NEB9)
Protocol: as §1, §2

AURKC (Aurora C) = target: T3, AURKC (Aurora C) (Homo sapiens, UniProt Q9UQB9)
T3 sequence (Q9UQB9 1-309): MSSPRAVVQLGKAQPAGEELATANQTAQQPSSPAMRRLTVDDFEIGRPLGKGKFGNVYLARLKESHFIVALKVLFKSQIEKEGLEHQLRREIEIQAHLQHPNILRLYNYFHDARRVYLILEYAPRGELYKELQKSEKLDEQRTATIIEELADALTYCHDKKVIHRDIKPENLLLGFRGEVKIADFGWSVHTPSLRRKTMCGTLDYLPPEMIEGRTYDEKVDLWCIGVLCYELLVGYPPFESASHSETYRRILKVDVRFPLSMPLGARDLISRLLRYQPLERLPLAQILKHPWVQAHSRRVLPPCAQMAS
Protocol: as §1, §2

KIT = KIT (Homo sapiens, UniProt P10721)
Protocol: as §1
The inhibition activities of compounds were determined in biochemical assays using single concentration (1.0 μM) measurements. The results were provided as percent inhibition values. […]

Chain of PIK3C3 (hVPS34) (Q8NEB9 whole entry): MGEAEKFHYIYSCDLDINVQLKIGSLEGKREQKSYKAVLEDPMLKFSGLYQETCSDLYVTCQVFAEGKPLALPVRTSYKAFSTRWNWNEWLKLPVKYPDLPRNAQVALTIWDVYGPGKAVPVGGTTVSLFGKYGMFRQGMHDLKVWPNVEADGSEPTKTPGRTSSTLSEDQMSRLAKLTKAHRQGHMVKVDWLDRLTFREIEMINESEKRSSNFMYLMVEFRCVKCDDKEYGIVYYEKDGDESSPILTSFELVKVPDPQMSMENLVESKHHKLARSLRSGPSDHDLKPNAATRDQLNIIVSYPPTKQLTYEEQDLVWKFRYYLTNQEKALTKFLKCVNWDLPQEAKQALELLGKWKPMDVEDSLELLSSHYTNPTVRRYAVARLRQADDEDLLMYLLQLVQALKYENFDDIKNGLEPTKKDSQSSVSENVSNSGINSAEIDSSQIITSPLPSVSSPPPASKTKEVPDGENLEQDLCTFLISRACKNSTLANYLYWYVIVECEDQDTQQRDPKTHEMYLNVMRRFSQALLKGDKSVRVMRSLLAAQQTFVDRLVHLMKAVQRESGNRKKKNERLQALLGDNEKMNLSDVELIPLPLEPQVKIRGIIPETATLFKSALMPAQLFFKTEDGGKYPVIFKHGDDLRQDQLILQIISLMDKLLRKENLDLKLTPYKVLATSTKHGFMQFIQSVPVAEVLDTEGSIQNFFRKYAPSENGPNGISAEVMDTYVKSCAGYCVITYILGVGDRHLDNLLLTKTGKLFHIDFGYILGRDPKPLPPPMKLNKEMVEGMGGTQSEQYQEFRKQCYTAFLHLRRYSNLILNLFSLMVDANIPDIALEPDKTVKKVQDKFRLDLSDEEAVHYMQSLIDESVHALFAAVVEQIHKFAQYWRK
Chain of YES1 (P07947 whole entry): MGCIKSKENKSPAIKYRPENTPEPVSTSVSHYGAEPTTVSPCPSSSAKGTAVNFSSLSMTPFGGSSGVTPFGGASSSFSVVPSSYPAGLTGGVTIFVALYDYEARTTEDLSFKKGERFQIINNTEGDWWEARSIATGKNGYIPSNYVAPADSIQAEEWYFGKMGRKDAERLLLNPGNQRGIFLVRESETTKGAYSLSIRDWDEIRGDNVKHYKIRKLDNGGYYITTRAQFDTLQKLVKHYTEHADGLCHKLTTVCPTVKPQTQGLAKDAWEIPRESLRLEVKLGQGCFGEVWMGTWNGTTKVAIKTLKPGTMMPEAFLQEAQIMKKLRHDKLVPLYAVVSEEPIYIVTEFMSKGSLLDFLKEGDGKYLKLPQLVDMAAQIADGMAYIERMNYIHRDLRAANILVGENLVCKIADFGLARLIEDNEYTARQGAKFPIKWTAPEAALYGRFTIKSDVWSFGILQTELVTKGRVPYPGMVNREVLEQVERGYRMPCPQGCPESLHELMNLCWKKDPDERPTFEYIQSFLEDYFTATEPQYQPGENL
Chain of JAK2 (O60674 whole entry): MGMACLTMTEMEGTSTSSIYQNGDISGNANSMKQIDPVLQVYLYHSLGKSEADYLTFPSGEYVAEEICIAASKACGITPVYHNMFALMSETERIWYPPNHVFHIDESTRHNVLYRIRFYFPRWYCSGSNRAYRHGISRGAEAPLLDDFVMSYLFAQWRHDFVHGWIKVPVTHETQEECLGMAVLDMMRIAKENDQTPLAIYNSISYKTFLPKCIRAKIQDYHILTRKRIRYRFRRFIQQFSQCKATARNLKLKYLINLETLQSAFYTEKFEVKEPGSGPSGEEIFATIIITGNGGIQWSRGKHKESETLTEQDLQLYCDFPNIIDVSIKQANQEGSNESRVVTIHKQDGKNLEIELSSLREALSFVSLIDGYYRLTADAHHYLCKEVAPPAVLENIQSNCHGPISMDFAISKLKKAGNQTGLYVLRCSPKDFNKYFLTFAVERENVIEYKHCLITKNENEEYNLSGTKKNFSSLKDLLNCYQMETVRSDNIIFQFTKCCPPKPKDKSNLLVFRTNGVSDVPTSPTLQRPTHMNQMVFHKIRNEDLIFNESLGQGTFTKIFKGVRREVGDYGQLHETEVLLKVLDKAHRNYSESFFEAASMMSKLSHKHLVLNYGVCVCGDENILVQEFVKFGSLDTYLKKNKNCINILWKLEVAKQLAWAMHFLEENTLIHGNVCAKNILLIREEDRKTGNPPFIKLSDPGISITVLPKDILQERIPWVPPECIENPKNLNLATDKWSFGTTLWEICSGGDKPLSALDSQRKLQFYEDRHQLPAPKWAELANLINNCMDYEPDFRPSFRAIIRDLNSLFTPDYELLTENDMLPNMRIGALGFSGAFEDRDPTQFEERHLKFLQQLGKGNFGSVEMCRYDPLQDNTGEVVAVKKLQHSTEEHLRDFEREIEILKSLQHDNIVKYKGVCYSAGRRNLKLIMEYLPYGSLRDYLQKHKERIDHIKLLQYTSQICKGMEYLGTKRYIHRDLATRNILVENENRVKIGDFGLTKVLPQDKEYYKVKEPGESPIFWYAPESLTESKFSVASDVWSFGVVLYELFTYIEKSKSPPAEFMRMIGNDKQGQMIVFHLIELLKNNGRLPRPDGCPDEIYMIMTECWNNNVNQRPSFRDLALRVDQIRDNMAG
Chain of IGF1R (P08069 31-1367): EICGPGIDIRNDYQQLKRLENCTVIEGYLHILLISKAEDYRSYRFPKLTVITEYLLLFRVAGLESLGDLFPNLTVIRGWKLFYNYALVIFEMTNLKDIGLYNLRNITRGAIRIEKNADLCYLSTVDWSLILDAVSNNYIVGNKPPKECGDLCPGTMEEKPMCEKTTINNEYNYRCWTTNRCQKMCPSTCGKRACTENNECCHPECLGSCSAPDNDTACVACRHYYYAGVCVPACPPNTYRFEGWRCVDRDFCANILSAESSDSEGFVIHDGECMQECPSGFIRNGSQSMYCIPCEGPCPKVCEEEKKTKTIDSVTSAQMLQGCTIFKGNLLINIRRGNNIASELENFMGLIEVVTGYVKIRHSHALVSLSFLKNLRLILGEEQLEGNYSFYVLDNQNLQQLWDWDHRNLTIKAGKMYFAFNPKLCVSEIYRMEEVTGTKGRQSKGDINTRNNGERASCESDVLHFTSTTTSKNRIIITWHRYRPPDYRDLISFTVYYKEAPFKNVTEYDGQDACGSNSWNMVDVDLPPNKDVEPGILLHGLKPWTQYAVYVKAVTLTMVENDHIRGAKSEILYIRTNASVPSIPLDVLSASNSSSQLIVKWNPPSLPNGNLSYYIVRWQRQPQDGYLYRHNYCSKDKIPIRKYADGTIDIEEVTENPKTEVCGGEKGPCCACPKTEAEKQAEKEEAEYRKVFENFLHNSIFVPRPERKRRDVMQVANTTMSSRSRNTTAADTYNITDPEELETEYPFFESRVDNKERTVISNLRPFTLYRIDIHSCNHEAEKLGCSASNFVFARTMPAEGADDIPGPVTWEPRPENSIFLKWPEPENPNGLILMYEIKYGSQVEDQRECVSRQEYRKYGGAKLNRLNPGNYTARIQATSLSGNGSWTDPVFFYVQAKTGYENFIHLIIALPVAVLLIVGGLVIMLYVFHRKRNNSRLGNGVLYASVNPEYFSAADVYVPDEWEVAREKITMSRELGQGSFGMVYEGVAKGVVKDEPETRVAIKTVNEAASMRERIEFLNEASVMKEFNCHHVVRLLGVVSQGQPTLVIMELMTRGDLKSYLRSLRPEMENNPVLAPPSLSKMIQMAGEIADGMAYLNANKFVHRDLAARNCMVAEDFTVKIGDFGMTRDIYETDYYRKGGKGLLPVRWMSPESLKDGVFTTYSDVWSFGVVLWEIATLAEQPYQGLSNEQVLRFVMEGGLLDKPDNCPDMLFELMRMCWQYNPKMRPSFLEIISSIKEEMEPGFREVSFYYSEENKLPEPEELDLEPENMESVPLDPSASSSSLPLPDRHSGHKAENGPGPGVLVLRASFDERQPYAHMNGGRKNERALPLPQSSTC
Chain of LTK (TYK1) (P29376 17-864): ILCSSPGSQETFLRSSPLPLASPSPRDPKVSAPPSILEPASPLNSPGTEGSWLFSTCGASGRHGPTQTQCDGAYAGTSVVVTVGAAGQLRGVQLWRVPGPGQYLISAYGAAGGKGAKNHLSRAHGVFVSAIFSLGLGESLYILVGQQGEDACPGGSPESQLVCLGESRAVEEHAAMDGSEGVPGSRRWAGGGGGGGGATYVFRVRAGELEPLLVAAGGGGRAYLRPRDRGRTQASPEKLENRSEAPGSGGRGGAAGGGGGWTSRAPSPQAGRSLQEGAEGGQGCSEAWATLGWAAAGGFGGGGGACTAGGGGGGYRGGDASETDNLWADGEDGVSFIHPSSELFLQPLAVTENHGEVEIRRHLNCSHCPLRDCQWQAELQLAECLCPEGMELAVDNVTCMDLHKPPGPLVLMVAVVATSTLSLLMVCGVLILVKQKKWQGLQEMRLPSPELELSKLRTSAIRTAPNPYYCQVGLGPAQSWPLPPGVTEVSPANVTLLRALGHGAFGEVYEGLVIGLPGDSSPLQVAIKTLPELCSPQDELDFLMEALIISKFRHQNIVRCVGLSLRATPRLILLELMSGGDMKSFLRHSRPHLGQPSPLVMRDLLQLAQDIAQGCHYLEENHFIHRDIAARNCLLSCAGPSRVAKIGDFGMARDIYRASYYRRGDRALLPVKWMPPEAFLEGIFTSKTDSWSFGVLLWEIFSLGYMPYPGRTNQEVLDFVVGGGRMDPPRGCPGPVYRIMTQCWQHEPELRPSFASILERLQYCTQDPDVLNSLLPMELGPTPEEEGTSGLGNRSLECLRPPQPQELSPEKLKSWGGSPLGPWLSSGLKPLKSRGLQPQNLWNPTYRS

Row | Structure (SMILES) | inhibition at 1 µM (IGF1R) [%] | inhibition at 1 µM (ABL2 (Arg)) [%] | inhibition at 1 µM (JAK2) [%] | inhibition at 1 µM (NTRK3 (TRKC)) [%] | inhibition at 1 µM (PIK3CG (p110 gamma)) [%] | inhibition at 1 µM (MATK (HYL)) [%] | inhibition at 1 µM (YES1) [%] | inhibition at 1 µM (EPHB4) [%] | inhibition at 1 µM (LTK (TYK1)) [%] | inhibition at 1 µM (PIK3C3 (hVPS34)) [%] | inhibition at 1 µM (AURKC (Aurora C)) [%] | inhibition at 1 µM (KIT) [%]
1 | COc1cc2nccc(Oc3ccc(NC(=O)C4(C(=O)Nc5ccc(F)cc5)CC4)cc3)c2cc1OC [Cabozantinib, reference compound] | 15 | 35 | 24 | 97 | 14 | 10 | 63 | 93 | 20 | 0 | 59 | 
2 | COc1cc2nccc(Oc3ccc(NC(=O)C4(NC(=O)c5ccc(F)cc5)CC4)cc3F)c2cc1OC [Cbo-02, N-(1-((4-((6,7-diMethoxyquinolin-4-yl)oxy)-3-fluorophenyl)carbamoyl)cyclopropyl)-4-fluorobenzamide] | 13 | 12 | 6 | 58 | 4 | 7 | 34 | 27 | 50 | 1 | 74 | 33
3 | COc1cc2nccc(Oc3ccc(NC(=O)C4(NC(=O)c5ccc(F)cc5)CC4)cc3F)c2cc1Oc1ccc(N)cc1F [Cbo-10] | 27 | 17 | -1 | 89 | 9 | 5 | 64 | 50 | 69 | -5 | 63 | 48
4 | COc1cc2nccc(Oc3ccc(NC(=O)C4(NC(=O)c5ccc(F)cc5)CC4)cc3F)c2cc1Oc1c(F)cc(N)cc1F [Cbo-14] | 35 | 18 | 1 | 98 | 6 | 8 | 63 | 76 | 79 | 6 | 59 | 45
5 | COc1cc2nccc(Oc3ccc(NC(=O)C4(C(=O)Nc5ccc(F)cc5)CC4)cc3F)c2cc1Oc1ccc(N)cc1F [Cbo-23] | 52 | 54 | 58 | 98 | -7 | 8 | 94 | 103 | 55 | -4 | 41 | 51
